System: cornroot worm (Diabrotica balteata)
Test: Residual soil activity against cornroot worm larvae, mortality after 48 hours, LC50 by probit analysis
Assay type: in vivo
Details: sandy soil, 10% moisture, 22 g, 20° C., 10 larvae, two replicates, 5 dose levels
Experimental: Residual soil activity of the compounds of Examples 25 to 40 was assessed against cornroot worm (Diabrotica balteata) using the following technique.
A known quantity of test compound dissolved in 1.0 ml acetone was applied evenly to a standard amount (22 g) of a sandy soil with a 10% moisture content. After 1 hour, 10 larvae were introduced. The temperature was maintained at 20° C. ±1° C. and mortality assessed after 48 hours. Two replicates of 10 larvae were used at each of 5 dose levels per compound. LC50 values were calculated as concentration of insecticide in the standard amount of soil using probit analysis.

Which “Residual Soil Activity (LC50)” value does the source give for F/C(=C\C1(c2ccc(F)cc2)CC1)Cc1cccc(Oc2ccccc2)c1 [Example 28, 1-(2-Fluoro-3-(3-phenoxyphenyl)prop-1-enyl)-1-(4-fluorophenyl)cyclopropane] here?
The value was 0.015 ppm.

With F/C(=C\C1(c2ccc(Cl)cc2)CC1)Cc1cccc(Oc2ccccc2)c1 [Example 25, 1-(4-Chlorophenyl)-1-(2-fluoro-3-(3-phenoxyphenyl)prop-1-enyl)cyclopropane] as the molecule, how does the “Residual Soil Activity (LC50)” value read?
The value was 0.031 ppm.

For CCOc1ccc(C2(/C=C(\F)Cc3cccc(Oc4ccccc4)c3)CC2)cc1 [Example 26, 1-(4-Ethoxyphenyl)-1-(2-fluoro-3-(3-phenoxyphenyl)prop-1-enyl)cyclopropane], which “Residual Soil Activity (LC50)” value is on record?
Its value is 0.029 ppm.

Which “Residual Soil Activity (LC50)” value does the source give for CCOc1ccc(C2(/C=C(\F)Cc3ccc(F)c(Oc4ccccc4)c3)CC2)cc1 [Example 34, 1-(4-Ethoxyphenyl)-1-(2-fluoro-3-(4-fluoro-3-phenoxyphenyl)prop-1-enyl)cyclopropane] here?
Its value is 0.031 ppm.

For F/C(=C\C1(c2ccc(OC(F)F)cc2)CC1)Cc1ccc(F)c(Oc2ccccc2)c1 [Example 39, 1-(4-Difluoromethoxyphenyl)-1-(2-fluoro-3-(4-fluoro-3-phenoxyphenyl)prop-1-enyl)cyclopropane], which “Residual Soil Activity (LC50)” value is on record?
The value was 0.033 ppm.

Which “Residual Soil Activity (LC50)” value does the source give for Fc1ccc(C/C=C/C2(c3ccc(Cl)cc3)CC2)cc1Oc1ccccc1 [Comp A, 1-(4-chlorophenyl)-1-(E-3-(4-fluoro-3-phenoxyphenyl)prop-1-enyl)-cyclopropane, reference compound] here?
The value was 0.68 ppm.

F/C(=C\C1(c2ccc(F)cc2)CC1)Cc1ccc(F)c(Oc2ccccc2)c1 [Example 35, 1-(2-Fluoro-3-(4-fluoro-3-phenoxyphenyl)prop-1-enyl)-1-(4-fluorophenyl)cyclopropane] was tested. Which “Residual Soil Activity (LC50)” value did it give?
Its value is 0.032 ppm.

Which “Residual Soil Activity (LC50)” value does the source give for F/C(=C\C1(c2ccc(OC(F)F)cc2)CC1)Cc1cccc(Oc2ccccc2)c1 [Example 32, 1-(4-Difluoromethoxyphenyl)-1-(2-fluoro-3-(3-phenoxyphenyl)prop-1-enyl)cyclopropane] here?
Its value is 0.055 ppm.

With F/C(=C\C1(c2ccc(C(F)(F)F)cc2F)CC1)Cc1cccc(Oc2ccccc2)c1 [Example 29, 1-(2-Fluoro-3-(3-phenoxyphenyl)prop-1-enyl)-1-(2-fluoro-4-trifluoromethylphenyl) cyclopropane] as the molecule, how does the “Residual Soil Activity (LC50)” value read?
Its value is 0.030 ppm.

With F/C(=C\C1(c2ccc3c(c2)OCO3)CC1)Cc1ccc(F)c(Oc2ccccc2)c1 [Example 37, 1-(2-Fluoro-3-(4-fluoro-3-phenoxyphenyl)prop-1-enyl)-1-(3,4-methylenedioxyphenyl)cyclopropane] as the molecule, how does the “Residual Soil Activity (LC50)” value read?
Its value is 0.055 ppm.

How did the “Residual Soil Activity (LC50)” value turn out when F/C(=C\C1(c2ccc(C(F)(F)F)cc2F)CC1)Cc1ccc(F)c(Oc2ccccc2)c1 [Example 36, 1-(2-Fluoro-3-(4-fluoro-3-phenoxyphenyl)prop-1-enyl)-1-(2-fluoro-4-trifluoromethylphenyl)cyclopropane] was run?
The value was 0.021 ppm.

For F/C(=C\C1(c2ccc3c(c2)OCO3)CC1)Cc1cccc(Oc2ccccc2)c1 [Example 30, 1-(2-Fluoro-3-(3-phenoxyphenyl)prop-1-enyl)-1-(3,4-methylenedioxyphenyl)cyclopropane], which “Residual Soil Activity (LC50)” value is on record?
Its value is 0.021 ppm.

For Fc1ccc(C2(/C=C/Cc3ccc(F)c(Oc4ccccc4)c3)CC2)cc1 [Comp C, 1-(4-fluorophenyl)-1-(E-3-(4-fluoro-3-phenoxyphenyl)prop-1-enyl)-cyclopropane, reference compound], which “Residual Soil Activity (LC50)” value is on record?
The value was 0.059 ppm.

How did the “Residual Soil Activity (LC50)” value turn out when F/C(=C\C1(c2ccc(OC(F)(F)F)cc2)CC1)Cc1cccc(Oc2ccccc2)c1 [Example 27, 1-(2-Fluoro-3-(3-phenoxyphenyl)prop-1-enyl)-1-(4-trifluoromethoxy-phenyl)cyclopropane] was run?
Its value is 0.038 ppm.

For FC(F)(F)Oc1ccc(C2(/C=C/Cc3cccc(Oc4ccccc4)c3)CC2)cc1 [Comp D, 1-(4-trifluoromethoxyphenyl)-1-(E-3-(3-phenoxyphenyl)prop-1-enyl)-cyclopropane, reference compound], which “Residual Soil Activity (LC50)” value is on record?
The value was 0.059 ppm.

How did the “Residual Soil Activity (LC50)” value turn out when CCOc1ccc(C2(/C=C/Cc3ccc(F)c(Oc4ccccc4)c3)CC2)cc1 [Comp B, 1-(4-ethoxyphenyl)-1-(E-3-(4-fluoro-3-phenoxyphenyl)prop-1-enyl)-cyclopropane, reference compound] was run?
The value was 0.43 ppm.

From patent US5763700A, “Pesticidal fluoroolefins” (British Technology Group Limited, priority 1992, dated 1998)
